Data from patent US11684594B2, “Antifungal prophylaxis for cornea” (PRESIDENT AND FELLOWS OF HARVARD COLLEGE, priority 2020, dated 2023).
Like-named read-outs stand apart in the source and are kept apart here.

Legend:
[1] = clinical or long-term topical ocular use, cited from earlier work
[2] = system: Candida, Aspergillus, and Fusarium; conditions: 0.01% hypochlorous acid (Avenova), cited from earlier work
C. albicans (ATCC 24433) = assay: In vitro time kill test, yeast; format: cell-based, Candida albicans; conditions: for Ratio fungicidal activity/cytotoxicity: FIG. 3, # of log10 reduction / fold-change in Trypan Blue staining vs PBS (HCLE), 1 min contact, C. albicans
Method: (§1) In Vitro Time Kill Tests. Microtiter time kill tests were carried out in vitro according to the published CLSI methods (M27-A2).^22
The inoculum was prepared by adjustment of the optical density at 600 nm (OD600) to 1.0 (corresponding to approximately 1×10^6 CFU/mL), and dilution by 1:10 in the final solution. To confirm the starting inoculum size, yeasts were plated […] and colonies counted after growth for 24 hrs at 37° C. The test solutions were neutralized at each time point by ten-fold dilution in Dey-Engley neutralizing broth (Sigma-Aldrich; St Louis, Mo.), and serially track diluted (PMID: 9343684) on Sabouraud dextrose agar (six serial 1:10 dilutions, 0.01 mL each) in technical triplicate. Colonies were counted and recorded following aerobic incubation for 24 hrs at 37° C.
(§2) To investigate the fungicidal activity of various antibiotics and antimicrobials, the reduction in fungal load after short contact times (0-15 min, FIGS. 2-3), to account for the effect of rapid dilution by the tear film, as occurs in patients after topical instillation, was measured.^23 The detection limit for time kill tests was approximately 100 CFU/mL for C. albicans, and 1 CFU/mL for F. solani and A. fumigatus (corresponding to a ≥3 log difference from the starting inoculum). 20-300 cells were considered a reliable counting range per dilution, and values were averaged when more than one dilution in the same plate were within this range.

[3] = system: human corneal-limbal epithelial cells (HCLE); format: cell-based
Method: In Vitro Toxicity Tests. Trypan Blue assays for toxicity of various antimicrobial agents were conducted using human corneal cells. Telomerase-immortalized human corneal-limbal epithelial cells (HCLE) were thawed at 37° C. and quickly transferred to a sterile T75 cell culture flask. Cells were grown in keratinocyte serum-free medium (KSFM; Gibco™; Thermofisher Scientific; Waltham, Mass.) supplemented with bovine pituitary extract (25 μg/mL), epidermal growth factor (0.2 ng/mL), calcium chloride (0.4 mM CaCl2[…]2H2O; Sigma-Aldrich; St Louis, Mo.), and 1× penicillin/streptomycin, at 37° C. with 5% CO2. Once cells were confluent, they were passaged following trypsinization in 12- or 24-well plates. After incubation with Trypsin-EDTA (0.05%, Gibco™; Thermofisher Scientific; Waltham, Mass.) for 5-10 min at 37° C. with 5% CO2, the reaction was stopped with an equivalent volume of neutralizing medium (Dulbecco's Modified Eagle Medium/Nutrient Mixture F-12, DMEM/F-12, with HEPES and 10% newborn calf serum), centrifuged at 5,000×g for 5 min, and re-suspended in supplemented KSFM. Experiments were performed using cells from passages 31 to 36. Once cells reached confluency, they were gently washed twice with DMEM/F-12 (Gibco™; Thermofisher Scientific; Waltham, Mass.) and incubated with an antimicrobial agent for 1 min (n=2 wells per group). Controls included 1×PBS (diluent) and 1% TX-100 (cell permeabilizer). After exposure to various agents, the cells were washed three times with DMEM/F-12, incubated with 0.2% Trypan Blue for 5 min, and washed again three times with DMEM/F-12. The remaining media was aspirated and replaced with 1×PBS for imaging. Macro-images of the culture plate were taken with a smartphone camera (iPhone 7; Apple Inc.; Cupertino, Calif.), and 10× images were taken with an inverted microscope (Eclipse TS100; Nikon; Tokyo, Japan) attached to a digital camera (SPOT Insight Fire Wire; Diagnostic Instruments Inc.; Sterling Heights, Mich.). 3-6 images/well were obtained in clockwise direction from areas immediately adjacent to the center of the well, and without overlapping areas. Images were quantified in ImageJ Fiji software to determine the amount of cell uptake of Trypan Blue. Macros were created from the Color Threshoulder plugin (G. Landini) to batch process the images after color matching in Photoshop to reference images per treatment group. % Area of Trypan Blue staining per image was calculated as follows: (area of blue/area of all)×100%.

[4] = system: A. fumigatus (ATCC MYA-3626); assay: In vitro time kill test, filamentous fungi; format: cell-based, Aspergillus fumigatus; conditions: for Ratio fungicidal activity/cytotoxicity: FIG. 3, # of log10 reduction / fold-change in Trypan Blue staining vs PBS (HCLE), 1 min contact, A. fumigatus
Method: as §1
(§3) ii) Filamentous fungi: The antibiotic solutions, at either full or 1/10 strength, and antiseptics were inoculated with approximately 2×10^5-2×10^6 conidia/mL of F. solani or A. fumigatus in RPMI broth (buffered with MOPS at pH 7.0; Mediatech; Manassas, Va.) for 0-15 min. Conidia were collected by flooding the agar plates with 10 mL of sterile 1×PBS and 0.1% Tween® 20 (Sigma Aldrich; St Louis, Mo.). The solution was transferred to a sterile conical tube, and particles were allowed to settle for 10 min. The resulting supernatant was transferred to a new sterile conical tube and centrifuged at 3,000×g for 5 min. The supernatant was discarded, the remaining pellet was re-suspended in RPMI broth (buffered with MOPS at pH 7.0), and the OD600 was adjusted to 1.0. In the final test solutions, at each time point the inoculum was diluted 1:10 and neutralized in Dey-Engley neutralizing broth (Sigma-Aldrich; St Louis, Mo.). Neutralized cultures were then serially diluted and plated on Sabouraud dextrose agar (two serial 1:10 dilutions, 0.1 mL each) in technical duplicate. Viable conidia were counted and recorded following aerobic incubation for 48 hrs (or as soon as growth was visible) at 25-35° C.
as §2

[5] = 1:1 IL at 10 mM in 1×PBS
[6] = system: F. solani (ATCC MYA-3636); assay: In vitro time kill test, filamentous fungi; format: cell-based, Fusarium solani; conditions: for Ratio fungicidal activity/cytotoxicity: FIG. 3, # of log10 reduction / fold-change in Trypan Blue staining vs PBS (HCLE), 1 min contact, F. solani
Method: as §1, §3, §2

[7] = system: Candida albicans (ATCC 24433), Fusarium solani (ATCC MYA-3636), and Aspergillus fumigatus (ATCC MYA-3626); assay: In vitro antifungal testing, statements not resolved by species; format: cell-based
Method: Several commonly used antibiotics were tested in vitro against Candida albicans (ATCC 24433), Fusarium solani (ATCC MYA-3636), and Aspergillus fumigatus (ATCC MYA-3626). Time kill activity and minimum inhibitory concentrations (MIC) were determined. Also the antiseptics benzalkonium chloride (BAK), povidone-iodine (PI), and ionic liquids (ILs) consisting of a 1:1 mixture of choline and undecanoic acid, were tested. Toxicity was assayed in vitro on cultures of human corneal epithelial cells, subjected to Trypan Blue staining. Adhesion and tissue invasion experiments were also carried out, with or without γ-irradiation, and by analysis with fluorescent microscopy.
as §1

## OCl [hypochlorous acid]
[1]
  Tolerability / ocular safety (words): well tolerated
[1]; listed as Hypochlorous acid
  Tolerability / ocular safety (words): easily tolerated
[2]
  Fungicidal activity (words): rapid fungicidal and sporicidal activity within one minute of exposure time
[2]; listed as Hypochlorous acid
  Fungicidal activity (words): highly effective against fungi

## Choline undecanoate (1:1) [choline-undecanoate IL]
C. albicans (ATCC 24433); 10 mM, within 1 min
  Reduction in viable C. albicans: 1-4 log
C. albicans (ATCC 24433)
  Ratio fungicidal activity/cytotoxicity: > 1
C. albicans (ATCC 24433); listed as novel IL
  Ratio fungicidal activity/cytotoxicity: highest ratios
[3]; FIG. 2A, confluent HCLE monolayers, 1 min of contact, BAK 40 µg/mL, PI 0.5%, #3-IL 10 mM
  Trypan Blue staining (% stained area per image) compared to control treatment TX-100 (1%): significantly lower amount of staining
[3]; HCLE cells, post-exposure Trypan blue staining
  Cytotoxicity / toxicity: virtually non-toxic
[4]; 10 mM, within 1 min
  Reduction in viable A. fumigatus: 1-4 log
[4]
  Ratio fungicidal activity/cytotoxicity: > 1
[4]; listed as novel IL
  Ratio fungicidal activity/cytotoxicity: highest ratios
[5]
  Light tolerance: tolerant of light exposure
  pH: 7.2±0.2
[5]; room temperature
  Stability: stable at room temperature for months
[6]; 10 mM, within 1 min
  Reduction in viable F. solani: 1-4 log
[6]; FIG. 2C, within 1 min of contact, Polytrim full strength, PI 0.5%, BAK 40 µg/mL, #3-IL 10 mM
  Reduction in viable conidia: 2 log10
[6]
  Ratio fungicidal activity/cytotoxicity: > 1
[6]; listed as novel IL
  Ratio fungicidal activity/cytotoxicity: highest ratios
[7]; fungicidal activity vs HCLE cytotoxicity, species not resolved
  Efficacy/toxicity ratio, overall rank: performed even better
[7]; species not resolved, agents at eye-drop or stated concentration
  Antifungal / fungicidal activity in vitro: effective
[7]; species-, contact time- and concentration-dependent
  Contact time within which in vitro fungicidal activity was exhibited: 1 to 15 min
